From patent US20260297131A1, “COMPOSITIONS AND METHODS FOR PEPTIDE-BASED MODULATORS OF HUMAN PAPILLOMAVIRUS ONCOPROTEIN E6” (priority 2023, published 2026)
Square brackets hold non-standard residues; d marks the D form. Peptide text beside a SMILES is read from it. * marks the point of attachment. 2Nal = N[C@@H](Cc1ccc2ccccc2c1)C(=O)O; Gly(cPent) = N[C@H](C(=O)O)C1CCCC1; Ala(cPr) = N[C@@H](CC1CC1)C(=O)O; hPhe = N[C@@H](CCc1ccccc1)C(=O)O; Gly(cBu) = N[C@H](C(=O)O)C1CCC1; X1 = O=C(Cn1c2ccccc2c2ccccc21)*; Aad = N[C@@H](CCCC(=O)O)C(=O)O; Cba = N[C@@H](CC1CCC1)C(=O)O; Aib = CC(C)(N)C(=O)O; Dha = C=C(N)C(=O)O

Experiments:
MBP-16E6 [1] = target: T1, MBP-16E6 (Human papillomavirus 16, UniProt P03126, C104S/C118S/C147S/C87S); experiment: biochemical
MBP-16E6 [2] = target: T1, MBP-16E6; details: for Ratio to wild-type: N-terminal modified peptides, KD of WT divided by KD
MBP-16E6 [3] = target: T1, MBP-16E6; details: for mono-crosslink in 2 h: 2 h at 37° C., 10 eq. to protein 16E6; for mono-crosslink yield at 1 h: 1 μM MBP-16E6, 4 μM Dha peptide
[4] = KD in nM, N-terminal modified peptides, competition mode, N = 2 or 3, SEM of curve fitting
[5] = competition KD, BLI competition, values in text

T1 sequence (P03126 whole entry C104S/C118S/C147S/C87S, looked up): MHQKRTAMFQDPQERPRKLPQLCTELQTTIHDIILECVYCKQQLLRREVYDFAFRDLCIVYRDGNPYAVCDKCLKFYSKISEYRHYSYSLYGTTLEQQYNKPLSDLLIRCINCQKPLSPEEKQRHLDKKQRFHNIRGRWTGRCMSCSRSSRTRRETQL

CC[C@H](C)[C@H](NC(=O)c1ccc2cc(O)ccc2c1)C(=O)N1CCC[C@H]1C(=O)N[C@@H](CCC(=O)O)C(=O)N[C@@H](CO)C(=O)N[C@@H](CO)C(=O)N[C@@H](CCC(=O)O)C(=O)N[C@@H](CC(C)C)C(=O)N[C@H](C(=O)N[C@@H](CC(C)C)C(=O)N[C@@H](CCC(N)=O)C(=O)N[C@@H](CCC(=O)O)C(=O)N[C@@H](CC(C)C)C(=O)N[C@@H](CC(C)C)C(=O)NCC(=O)N[C@@H](CCC(=O)O)C(=O)N[C@@H](CCC(=O)O)C(=O)N[C@@H](CCCNC(=N)N)C(=O)N[C@@H](CCCNC(=N)N)C(N)=O)[C@@H](C)O [Peptide N17]
Kd (MBP-16E6 [1]; [4]): 159 ± 47 nM
Ratio to wild-type (MBP-16E6 [2]): 15.3

CC[C@H](C)[C@H](NC(=O)CCCc1ccc2ccc3cccc4ccc1c2c34)C(=O)N1CCC[C@H]1C(=O)N[C@@H](CCC(=O)O)C(=O)N[C@@H](CO)C(=O)N[C@@H](CO)C(=O)N[C@@H](CCC(=O)O)C(=O)N[C@@H](CC(C)C)C(=O)N[C@H](C(=O)N[C@@H](CC(C)C)C(=O)N[C@@H](CCC(N)=O)C(=O)N[C@@H](CCC(=O)O)C(=O)N[C@@H](CC(C)C)C(=O)N[C@@H](CC(C)C)C(=O)NCC(=O)N[C@@H](CCC(=O)O)C(=O)N[C@@H](CCC(=O)O)C(=O)N[C@@H](CCCNC(=N)N)C(=O)N[C@@H](CCCNC(=N)N)C(N)=O)[C@@H](C)O [Peptide N18]
Kd (MBP-16E6 [1]; [4]): 106 ± 27 nM
Ratio to wild-type (MBP-16E6 [2]): 23

CC[C@H](C)[C@H](NC(=O)c1ccc2c3c(cccc13)CC2)C(=O)N1CCC[C@H]1C(=O)N[C@@H](CCC(=O)O)C(=O)N[C@@H](CO)C(=O)N[C@@H](CO)C(=O)N[C@@H](CCC(=O)O)C(=O)N[C@@H](CC(C)C)C(=O)N[C@H](C(=O)N[C@@H](CC(C)C)C(=O)N[C@@H](CCC(N)=O)C(=O)N[C@@H](CCC(=O)O)C(=O)N[C@@H](CC(C)C)C(=O)N[C@@H](CC(C)C)C(=O)NCC(=O)N[C@@H](CCC(=O)O)C(=O)N[C@@H](CCC(=O)O)C(=O)N[C@@H](CCCNC(=N)N)C(=O)N[C@@H](CCCNC(=N)N)C(N)=O)[C@@H](C)O [Peptide N19]
Kd (MBP-16E6 [1]; [4]): 55 ± 12 nM
Kd (MBP-16E6 [1]; [5]): < 70 nM
Ratio to wild-type (MBP-16E6 [2]): 44.4

C=C(NC(=O)[C@H](C)NC(=O)[C@H](C)NC(=O)[C@H](CCC(=O)O)NC(=O)C(C)(C)NC(=O)[C@H](C)NC(=O)[C@@H](NC(=O)[C@H](Cc1ccc2ccccc2c1)NC(=O)[C@@H](N)CCCC(=O)O)C1CCCC1)C(=O)N[C@@H](CCC(=O)O)C(=O)N[C@@H](CCC(=O)O)C(=O)N[C@@H](CCCNC(=N)N)C(N)=O [Peptide 18-3L3A] (H-[Aad][2Nal][Gly(cPent)]A[Aib]EAA[Dha]EER-NH2)
crosslinking to MBP-16E6 (MBP-16E6 [3]; LC-MS): no observable crosslinking
binding to MBP-16E6 (MBP-16E6 [2]; BLI): no observable binding

CC[C@H](C)[C@H](NC(=O)[C@@H](N)Cc1ccc(-c2ccccc2)cc1)C(=O)N1CCC[C@H]1C(=O)N[C@@H](CCC(=O)O)C(=O)N[C@@H](CO)C(=O)N[C@@H](CO)C(=O)N[C@@H](CCC(=O)O)C(=O)N[C@@H](CC(C)C)C(=O)N[C@H](C(=O)N[C@@H](CC(C)C)C(=O)N[C@@H](CCC(N)=O)C(=O)N[C@@H](CCC(=O)O)C(=O)N[C@@H](CC(C)C)C(=O)N[C@@H](CC(C)C)C(=O)NCC(=O)N[C@@H](CCC(=O)O)C(=O)N[C@@H](CCC(=O)O)C(=O)N[C@@H](CCCNC(=N)N)C(=O)N[C@@H](CCCNC(=N)N)C(N)=O)[C@@H](C)O [Peptide N21]
Kd (MBP-16E6 [1]; [4]): 1410 ± 757 nM
Kd (MBP-16E6 [1]; [5]): 1410 nM
Ratio to wild-type (MBP-16E6 [2]): 1.7
decrease in binding by change of terminal group (MBP-16E6 [2]; relative to fluorene-modified N1 / parent modification): ~ 27 fold

CC[C@H](C)[C@H](NC(=O)c1c(F)c(F)c(F)c(F)c1F)C(=O)N1CCC[C@H]1C(=O)N[C@@H](CCC(=O)O)C(=O)N[C@@H](CO)C(=O)N[C@@H](CO)C(=O)N[C@@H](CCC(=O)O)C(=O)N[C@@H](CC(C)C)C(=O)N[C@H](C(=O)N[C@@H](CC(C)C)C(=O)N[C@@H](CCC(N)=O)C(=O)N[C@@H](CCC(=O)O)C(=O)N[C@@H](CC(C)C)C(=O)N[C@@H](CC(C)C)C(=O)NCC(=O)N[C@@H](CCC(=O)O)C(=O)N[C@@H](CCC(=O)O)C(=O)N[C@@H](CCCNC(=N)N)C(=O)N[C@@H](CCCNC(=N)N)C(N)=O)[C@@H](C)O [Peptide N16]
Kd (MBP-16E6 [1]; [4]): 228 ± 74 nM
Ratio to wild-type (MBP-16E6 [2]): 10.7

C=C(NC(=O)[C@H](CC(C)C)NC(=O)[C@H](CC1CCC1)NC(=O)[C@H](CCC(=O)O)NC(=O)C(C)(C)NC(=O)[C@H](CC(C)C)NC(=O)[C@@H](NC(=O)[C@H](Cc1ccc2ccccc2c1)NC(=O)[C@H](CCCC(=O)O)NC(=O)Cn1c2ccccc2c2ccccc21)C1CCCC1)C(=O)N[C@@H](CCC(=O)O)C(=O)N[C@@H](CCC(=O)O)C(=O)N[C@@H](CCCNC(=N)N)C(N)=O [Peptide 18-Car] (X1-[Aad][2Nal][Gly(cPent)]L[Aib]E[Cba]L[Dha]EER-NH2)
mono-crosslink in 2 h (MBP-16E6 [3]): quantitatively mono-crosslink
Ki (MBP-16E6 [1]): 0.096 ± 0.033 µM
improvement of binding relative to peptide 18 (MBP-16E6 [2]; apparent Ki): 3 fold

CC[C@H](C)[C@H](NC(=O)c1c(O)cccc1O)C(=O)N1CCC[C@H]1C(=O)N[C@@H](CCC(=O)O)C(=O)N[C@@H](CO)C(=O)N[C@@H](CO)C(=O)N[C@@H](CCC(=O)O)C(=O)N[C@@H](CC(C)C)C(=O)N[C@H](C(=O)N[C@@H](CC(C)C)C(=O)N[C@@H](CCC(N)=O)C(=O)N[C@@H](CCC(=O)O)C(=O)N[C@@H](CC(C)C)C(=O)N[C@@H](CC(C)C)C(=O)NCC(=O)N[C@@H](CCC(=O)O)C(=O)N[C@@H](CCC(=O)O)C(=O)N[C@@H](CCCNC(=N)N)C(=O)N[C@@H](CCCNC(=N)N)C(N)=O)[C@@H](C)O [Peptide N15]
Kd (MBP-16E6 [1]; [4]): 767 ± 295 nM
Ratio to wild-type (MBP-16E6 [2]): 3.1

C=C(NC(=O)[C@H](CC(C)C)NC(=O)[C@H](CC1CCC1)NC(=O)[C@H](CCC(=O)O)NC(=O)C(C)(C)NC(=O)[C@H](CC(C)C)NC(=O)[C@@H](NC(=O)[C@H](Cc1ccc2ccccc2c1)NC(=O)[C@H](CCCC(=O)O)NC(=O)[C@H](C)NC(=O)[C@H](CO)NC(=O)[C@H](CCC(N)=O)NC(=O)[C@@H]1CCCN1C(=O)[C@@H](NC(=O)Cn1c2ccccc2c2ccccc21)[C@@H](C)CC)C1CCCC1)C(N)=O [18-Car-IPQSA-truncEER] (X1-IPQSA[Aad][2Nal][Gly(cPent)]L[Aib]E[Cba]L[Dha]-NH2)
mono-crosslink yield at 1 h (MBP-16E6 [3]): 76%
mono-crosslink in 2 h (MBP-16E6 [3]): quantitatively mono-crosslink
Ki (MBP-16E6 [1]): 0.044 ± 0.011 µM

C=C(NC(=O)[C@H](CC(C)C)NC(=O)[C@H](CC1CCC1)NC(=O)[C@H](CCC(=O)O)NC(=O)C(C)(C)NC(=O)[C@H](CC(C)C)NC(=O)[C@@H](NC(=O)[C@H](CCCCNC(=O)Cn1c2ccccc2c2ccccc21)NC(=O)[C@H](CCCC(=O)O)NC(C)=O)C1CCCC1)C(=O)N[C@@H](CCC(=O)O)C(=O)N[C@@H](CCC(=O)O)C(=O)N[C@@H](CCCNC(=N)N)C(N)=O [Peptide 18-Naf2Cab] (Ac-[Aad]K(X1)[Gly(cPent)]L[Aib]E[Cba]L[Dha]EER-NH2)
mono-crosslink yield at 1 h (MBP-16E6 [3]): 83%
mono-crosslink in 2 h (MBP-16E6 [3]): quantitatively mono-crosslink
Ki (MBP-16E6 [1]): 0.051 ± 0.011 µM

C=C(NC(=O)[C@H](CC(C)C)NC(=O)[C@H](CC(C)C)NC(=O)[C@H](CCCC(=O)O)NC(=O)C(C)(C)NC(=O)[C@H](CC1CC1)NC(=O)[C@@H](NC(=O)[C@H](Cc1ccc2ccccc2c1)NC(=O)[C@@H](N)CCCC(=O)O)C1CCCC1)C(=O)N[C@@H](CCC(=O)O)C(=O)N[C@@H](CCC(=O)O)C(=O)N[C@@H](CCCNC(=N)N)C(N)=O [peptide 23] (H-[Aad][2Nal][Gly(cPent)][Ala(cPr)][Aib][Aad]LL[Dha]EER-NH2)
improved affinity compared to parent reactide ELT-DHA9G (MBP-16E6 [2]): 50 fold

C=C(NC(=O)[C@H](CC1CC1)NC(=O)[C@H](CCc1ccccc1)NC(=O)[C@H](CCC(=O)O)NC(=O)C(C)(C)NC(=O)[C@H](CC1CC1)NC(=O)[C@@H](NC(=O)[C@H](Cc1ccc2ccccc2c1)NC(=O)[C@@H](N)CCCC(=O)O)C1CCC1)C(=O)N[C@@H](CCC(=O)O)C(=O)N[C@@H](CCC(=O)O)C(=O)N[C@@H](CCCNC(=N)N)C(N)=O [peptide 14] (H-[Aad][2Nal][Gly(cBu)][Ala(cPr)][Aib]E[hPhe][Ala(cPr)][Dha]EER-NH2)
lower binding affinity compared to peptide 18 (MBP-16E6 [2]; substitution Leu8Hof): 2 fold

CC[C@H](C)[C@H](NC(=O)Cc1cc(=O)oc2cc(OC)ccc12)C(=O)N1CCC[C@H]1C(=O)N[C@@H](CCC(=O)O)C(=O)N[C@@H](CO)C(=O)N[C@@H](CO)C(=O)N[C@@H](CCC(=O)O)C(=O)N[C@@H](CC(C)C)C(=O)N[C@H](C(=O)N[C@@H](CC(C)C)C(=O)N[C@@H](CCC(N)=O)C(=O)N[C@@H](CCC(=O)O)C(=O)N[C@@H](CC(C)C)C(=O)N[C@@H](CC(C)C)C(=O)NCC(=O)N[C@@H](CCC(=O)O)C(=O)N[C@@H](CCC(=O)O)C(=O)N[C@@H](CCCNC(=N)N)C(=O)N[C@@H](CCCNC(=N)N)C(N)=O)[C@@H](C)O [Peptide N20]
Kd (MBP-16E6 [1]; [4]): 213 ± 47 nM
Ratio to wild-type (MBP-16E6 [2]): 11.4

CC[C@H](C)[C@H](NC(=O)[C@@H](N)CC1CCCCC1)C(=O)N1CCC[C@H]1C(=O)N[C@@H](CCC(=O)O)C(=O)N[C@@H](CO)C(=O)N[C@@H](CO)C(=O)N[C@@H](CCC(=O)O)C(=O)N[C@@H](CC(C)C)C(=O)N[C@H](C(=O)N[C@@H](CC(C)C)C(=O)N[C@@H](CCC(N)=O)C(=O)N[C@@H](CCC(=O)O)C(=O)N[C@@H](CC(C)C)C(=O)N[C@@H](CC(C)C)C(=O)NCC(=O)N[C@@H](CCC(=O)O)C(=O)N[C@@H](CCC(=O)O)C(=O)N[C@@H](CCCNC(=N)N)C(=O)N[C@@H](CCCNC(=N)N)C(N)=O)[C@@H](C)O [Peptide N22]
Kd (MBP-16E6 [1]; [4]): 1660 ± 705 nM
Ratio to wild-type (MBP-16E6 [2]): 1.4
